Values quoted from earlier work in patent US20070077296A1, “Pharmaceutical Preparation containing Meloxicam” (priority 2005, published 2007).

solubility in water: hardly dissolve in water
Compound: Cc1cnc(NC(=O)C2=C(O)c3ccccc3S(=O)(=O)N2C)s1 [meloxicam, 4-hydroxy-2-methyl-N-(5-methyl-2-thiazolyl)-2H-1,2-benzothiazine-3-carboxamide-1,1-dioxide]
